Assay results taken from PMC6270921, “Study on the Cytotoxic Activity of Drimane Sesquiterpenes and Nordrimane Compounds against Cancer Cell Lines” (Molecules, 2014).

Tests used:
Format in all cases: cell-based
[1] = system: PC-3 prostate cancer cell line; test: Cell viability, sulforhodamine B assay; settings: Homo sapiens, 72 h exposure, dilutions 12.5 to 100 μM, read-out: Cytotoxicity IC50, PC-3
Experimental: (§1) The cytotoxicity of compounds 1–12 was evaluated in vitro against different cancer cell lines: MCF-7 breast cancer, DU-145 and PC-3 human prostate cancer, and one non-tumor cell line, human colon epithelial cells CCD 841 CoN (CoN). […] Four serial dilutions (from 12.5 to 100 μM) for each sample were evaluated in triplicate.
(§2) The experimental cell cultures were obtained from the American Type Culture Collection (Rockville, MD, USA). MCF-7 cells (breast cancer cell line), PC-3 and DU-145 (prostate cancer cell lines), and human colon epithelial cells CCD 841 CoN (non-tumoral cell line) were grown in Dulbecco’s modified Eagle’s medium (DMEM) containing 10% FCS, 100 U/mL penicillin, 100 μg/mL streptomycin, and 1 mM glutamine. Cells were seeded into 96 well microtiter plates in 100 μL at a plating density of 5 × 10^3 cells/well. After 24 h incubation at 37 °C under a humidified 5% CO2 atmosphere to allow cell attachment, the cells were treated with different concentrations of drugs and incubated for 72 h under the same conditions. Stock solutions of compounds were prepared in ethanol and the final concentration of this solvent was kept constant at 1%. Control cultures received 1% ethanol alone.
(§3) The sulforhodamine B assay was used according to the method of Skehan et al.. Briefly, the cells were set up at 3 × 10^3 cells per well of a 96 200 μL well, flat-bottomed, microplate. Cells were incubated at 37 °C in a humidified 5% CO2/95% air mixture and treated with the compounds at different concentrations for 72 h. At the end of drug exposure, cells were fixed with 50% trichloroacetic acid at 4 °C. After washing with water, cells were stained with 0.1% sulforhodamine B (Sigma-Aldrich, St. Louis, MO, USA), dissolved in 1% acetic acid (50 μL/well) for 30 min, and subsequently washed with 1% acetic acid to remove unbound stain. Protein-bound stain was solubilized with 100 μL of 10 mM unbuffered Tris base, and the cell density was determined using a […] plate reader (wavelength 540 nm). Values shown are the mean ± SD of three independent experiments in triplicate. The software used to calculate the IC50 values was GraphPad (GraphPad Software, San Diego, CA, USA).

[2] = system: MCF-7 breast cancer cell line; test: Cell viability, sulforhodamine B assay; settings: Homo sapiens, MCF7, 72 h exposure, dilutions 12.5 to 100 μM, read-out: Cytotoxicity IC50, MCF-7
Experimental: as §1, §2, §3

[3] = system: DU-145 prostate cancer cell line; test: Cell viability, sulforhodamine B assay; settings: Homo sapiens, 72 h exposure, dilutions 12.5 to 100 μM, read-out: Cytotoxicity IC50, DU145
Experimental: as §1, §2, §3

[4] = Cell viability, sulforhodamine B assay; settings: human, CCD 841 CoN colon epithelial cells (non-tumoral cell line), 72 h exposure, dilutions 12.5 to 100 μM, non-tumor cell line, read-out: Cytotoxicity IC50, CoN
Experimental: as §1, §2, §3

## CC1(C)CCC[C@]2(C)[C@@H](C=O)C(C=O)=CC[C@@H]12 [Compound 1, polygodial]
[1]
  IC50: 89.2 ± 6.8 µM
[2]
  IC50: 93.7 ± 9.1 µM
[3]
  IC50: 71.4 ± 8.5 µM
[4]
  IC50 at 72 h: > 200 µM
